Measurements taken from US8680339B2, “Herbicides” (Syngenta Limited, priority 2009, dated 2014).

Columns and labels:
Type in all cases: in vivo
[1] = tested on: Alopecurus myosuroides (ALOMY); assay: Post-emergence herbicidal activity, glasshouse pot test; details: rate 250 g/ha, evaluated after 13 days, 100=total damage to plant, 0=no damage to plant; for pest or weed control at 250 g/ha: Alopecurus myosuroides, 312 h
Description: (§1) Seeds of a variety of test species were sown in standard soil in pots. After cultivation for one day (pre-emergence) or after 8 days cultivation (post-emergence) under controlled conditions in a glasshouse (at 24/16° C., day/night; 14 hours light; 65% humidity), the plants were sprayed with an aqueous spray solution derived from the formulation of the technical active ingredient in acetone/water (50:50) solution containing 0.5% Tween 20 (polyoxyethelyene sorbitan monolaurate, CAS RN 9005-64-5). The test plants were then grown in a glasshouse under controlled conditions in a glasshouse (at 24/16° C., day/night; 14 hours light; 65% humidity) and watered twice daily. After 13 days for pre and post-emergence, the test was evaluated (100=total damage to plant; 0=no damage to plant). Test Plants: Lolium perenne (LOLPE), Alopecurus myosuroides (ALOMY), Echinochloa crus-galli (ECHCG), and Avena fatua (AVEFA). Post-Emergence Activity

[2] = tested on: Avena fatua (AVEFA); assay: as above; details: rate 250 g/ha, evaluated after 13 days, 100=total damage to plant, 0=no damage to plant; for pest or weed control at 250 g/ha: Avena fatua, 312 h
Description: as §1

[3] = tested on: Echinochloa crus-galli (ECHCG); assay: as above; details: rate 250 g/ha, evaluated after 13 days, 100=total damage to plant, 0=no damage to plant; for pest or weed control at 250 g/ha: Echinochloa crus-galli, 312 h
Description: as §1

[4] = tested on: Lolium perenne (LOLPE); assay: as above; details: rate 250 g/ha, evaluated after 13 days, 100=total damage to plant, 0=no damage to plant; for pest or weed control at 250 g/ha: Lolium perenne, 312 h
Description: as §1

[5] = tested on: Alopecurus myosuroides (ALOMY); assay: Pre-emergence herbicidal activity, glasshouse pot test; details: rate 250 g/ha, evaluated after 13 days, 100=total damage to plant, 0=no damage to plant; for pest or weed control at 250 g/ha: Alopecurus myosuroides, 312 h
Description: as §1, with “Pre-Emergence” for “Post-Emergence”

[6] = tested on: Avena fatua (AVEFA); assay: as above; details: rate 250 g/ha, evaluated after 13 days, 100=total damage to plant, 0=no damage to plant; for pest or weed control at 250 g/ha: Avena fatua, 312 h
Description: as §1, with “Pre-Emergence” for “Post-Emergence”

[7] = tested on: Echinochloa crus-galli (ECHCG); assay: as above; details: rate 250 g/ha, evaluated after 13 days, 100=total damage to plant, 0=no damage to plant; for pest or weed control at 250 g/ha: Echinochloa crus-galli, 312 h
Description: as §1, with “Pre-Emergence” for “Post-Emergence”

[8] = tested on: Lolium perenne (LOLPE); assay: as above; details: rate 250 g/ha, evaluated after 13 days, 100=total damage to plant, 0=no damage to plant; for pest or weed control at 250 g/ha: Lolium perenne, 312 h
Description: as §1, with “Pre-Emergence” for “Post-Emergence”

| Compound | pest or weed control at 250 g/ha [1] | pest or weed control at 250 g/ha [2] | pest or weed control at 250 g/ha [3] | pest or weed control at 250 g/ha [4] | damage to plant ALOMY [5] | damage to plant AVEFA [6] | pest or weed control at 250 g/ha [7] | pest or weed control at 250 g/ha [8] | pest or weed control at 250 g/ha [5] | pest or weed control at 250 g/ha [6] | damage to plant ALOMY [1] | damage to plant LOLPE [4] | damage to plant AVEFA [2] | damage to plant ECHCG [3] | damage to plant ECHCG [7] | damage to plant LOLPE [8] |
| --- | --- | --- | --- | --- | --- | --- | --- | --- | --- | --- | --- | --- | --- | --- | --- | --- |
| Cc1cc(Oc2ncc(Cl)cc2F)cc(C)c1C1=C(O)[C@H]2[C@@H](C1=O)[C@@H]1CC[C@H]2O1 [Compound A-24] | 80% | 80% | 90% | 90% | 100 | 60 | 70% | 80% |  |  |  |  |  |  |  |  |
| CCc1cc(Oc2ccc(Br)cc2F)ccc1C1=C(O)[C@H]2[C@@H](C1=O)[C@@H]1CC[C@H]2O1 [Compound A-1] | 70% | 80% | 100% | 70% |  |  | 30% | 20% | 20% | 0% |  |  |  |  |  |  |
| Cc1cc(Oc2ccc(Cl)cc2)cc(C)c1C1=C(O)[C@H]2[C@@H](C1=O)[C@@H]1CC[C@H]2O1 [Compound A-4] | 100% | 90% | 100% | 100% |  |  | 90% | 80% | 100% | 70% |  |  |  |  |  |  |
| Cc1cc(Oc2cnc3cc(Cl)ccc3n2)cc(C)c1C1=C(O)[C@H]2[C@@H](C1=O)[C@@H]1CC[C@H]2O1 [Compound A-22] |  | 100% | 90% |  |  | 50 | 90% | 80% | 50% |  | 100 | 100 |  |  |  |  |
| Cc1cc(Oc2cnc3cc(Cl)ccc3n2)cc(C)c1C1=C(O)[C@H]2[C@H]3CC[C@H](C3)[C@H]2C1=O [Compound A-16] | 30% | 0% | 60% | 0% |  |  | 10% | 0% | 0% | 0% |  |  |  |  |  |  |
| Cc1cc(Oc2ccc3cc(Cl)ccc3n2)cc(C)c1C1=C(O)CC(CC2CCOCC2)C1=O (stereo not drawn) [Compound A-37, 2-[4-(6-chloroquinolin-2-yloxy)-2,6-dimethylphenyl]-4-(tetrahydropyran-4-ylmethyl)cyclopentane-1,3-dione] | 50% | 60% | 80% | 40% |  |  | 90% | 0% | 10% | 10% |  |  |  |  |  |  |
| CCc1cc(Oc2ccc3cc(Cl)ccc3n2)ccc1C1=C(O)CCC1=O [Compound A-35] | 0% | 0% | 80% | 20% |  |  | 70% | 0% | 0% | 0% |  |  |  |  |  |  |
| Cc1cc(Oc2ncc(Cl)cc2F)cc(C)c1C1=C(O)[C@H]2[C@@H](C1=O)[C@@H]1CC[C@H]2O1 [Compound A-25] |  |  |  |  | 40 | 30 |  |  |  |  | 90 | 80 | 70 | 70 | 70 | 80 |
| CCc1cc(Oc2ccc(Cl)cc2)ccc1C1=C(O)CCC1=O [Compound A-32, 2-[4-(4-chlorophenoxy)-2-ethylphenyl]cyclopentane-1,3-dione] | 0% | 0% | 0% | 0% |  |  | 50% | 10% | 0% | 0% |  |  |  |  |  |  |
| Cc1cc(Oc2ccc(Cl)cc2)cc(C)c1C1=C(OC(=O)C(C)(C)C)[C@H]2[C@@H](C1=O)[C@@H]1CC[C@H]2O1 [Compound P-3] | 90% | 100% | 100% | 100% |  |  | 100% | 90% | 100% | 90% |  |  |  |  |  |  |
| Cc1cc(Oc2ccc(C(F)(F)F)cn2)cc(C)c1C1=C(O)C2C(C1=O)[C@H]1CC[C@@H]2CC1 (stereo partly drawn) [Compound A-19] | 10% | 10% | 60% | 0% |  |  | 10% | 0% | 0% | 0% |  |  |  |  |  |  |
| Cc1cc(Oc2cnc3cc(Cl)ccc3n2)cc(C)c1C1=C(O)[C@H]2[C@@H](C1=O)[C@@H]1CC[C@H]2O1 [Compound A-23] |  |  |  |  | 30 | 20 |  |  |  |  | 60 | 50 | 80 | 70 | 90 | 90 |
| Cc1cc(Oc2cnc3cc(Cl)ccc3n2)cc(C)c1C1=C(O)C2C(C1=O)[C@H]1CC[C@@H]2CC1 (stereo partly drawn) [Compound A-21] | 10% | 0% | 70% | 0% |  |  | 50% | 30% | 10% | 0% |  |  |  |  |  |  |
| Cc1cc(Br)ccc1Oc1cc(C)c(C2=C(O)[C@H]3[C@@H](C2=O)[C@@H]2CC[C@H]3O2)c(C)c1 [Compound A-13] | 80% | 30% | 50% | 60% |  |  | 70% | 60% | 60% | 0% |  |  |  |  |  |  |
| Cc1cc(Oc2ccc(Br)cc2)cc(C)c1C1=C(O)[C@H]2[C@@H](C1=O)[C@@H]1CC[C@H]2O1 [Compound A-11] | 90% | 90% | 100% | 90% |  |  | 70% | 100% | 90% | 90% |  |  |  |  |  |  |
| Cc1cc(Oc2ccc(Br)cc2Cl)cc(C)c1C1=C(O)[C@H]2[C@@H](C1=O)[C@@H]1CC[C@H]2O1 [Compound A-12] | 80% | 70% | 100% | 70% |  |  | 60% | 70% | 40% | 10% |  |  |  |  |  |  |
| Cc1cc(Oc2ccc(C(F)(F)F)cn2)cc(C)c1C1=C(O)[C@H]2[C@H]3CC[C@H](C3)[C@H]2C1=O [Compound A-17, meso-(3aS,4S,7R,7aR)-2-[2,6-dimethyl-4-(5-trifluoromethylpyridin-2-yloxy)phenyl]-hexahydro-4,7-methanoindene-1,3-dione] | 10% | 10% | 40% | 10% |  |  | 30% | 0% | 0% | 0% |  |  |  |  |  |  |
| Cc1cc(Oc2ncc(Cl)cc2F)cc(C)c1C1=C(O)[C@H]2[C@H]3CC[C@H](C3)[C@H]2C1=O [Compound A-18] | 30% | 30% | 70% | 10% |  |  | 40% | 0% | 10% | 0% |  |  |  |  |  |  |
